Measurements reported in ChEMBL document CHEMBL1201862, “PubChem BioAssay data set” (2004).
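Tested at 5 concentrations; 48 h exposure; 96-well plates; endpoints linearly interpolated, else capped at highest concentration. GI50 marks 50% less growth.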 Activity calls are given as the source filed them. Rule as the data show it: active = GI50 up to about 1.1 µM and inactive = higher. Where a SMILES comes first, the peptide text is derived from it. The star is where a group is joined. Boc = CC(C)(C)OC(=O)*

Experiments:
Test in all cases: DTP human tumour cell line panel, 48 h
U-251 = tested on: U-251
HCT-116 = tested on: HCT-116
MDA-MB-231 = tested on: MDA-MB-231
SK-MEL-28 = tested on: SK-MEL-28
OVCAR-4 = tested on: OVCAR-4
UACC-257 = tested on: UACC-257
NCI-H226 = tested on: NCI-H226
HOP-62 = tested on: HOP-62
UACC-62 = tested on: UACC-62
T47D = tested on: T47D
SR = tested on: SR
PC-3 = tested on: PC-3
SNB-75 = tested on: SNB-75
OVCAR-3 = tested on: OVCAR-3
SW-620 = tested on: SW-620
MCF7 = tested on: MCF7
SN12C = tested on: SN12C
A498 = tested on: A498
SF-295 = tested on: SF-295
NCI/ADR-RES = tested on: NCI/ADR-RES

| SMILES | GI50 (U-251) | GI50 (HCT-116) | GI50 (MDA-MB-231) | GI50 (SK-MEL-28) | GI50 (OVCAR-4) | GI50 (UACC-257) | GI50 (NCI-H226) | GI50 (HOP-62) | GI50 (UACC-62) | GI50 (T47D) | GI50 (SR) | GI50 (PC-3) | GI50 (SNB-75) | GI50 (OVCAR-3) | GI50 (SW-620) | GI50 (MCF7) | GI50 (SN12C) | GI50 (A498) | GI50 (SF-295) | GI50 (NCI/ADR-RES) |
| --- | --- | --- | --- | --- | --- | --- | --- | --- | --- | --- | --- | --- | --- | --- | --- | --- | --- | --- | --- | --- |
| COC(=O)C(Cc1c[nH]c2ccccc12)NC(=O)C(Cc1c[nH]c2ccccc12)NC(=O)C(Cc1c[nH]c2ccccc12)NC(=O)C(Cc1c[nH]c2ccccc12)NC(=O)C(Cc1c[nH]c2ccccc12)NC(=O)C(Cc1c[nH]c2ccccc12)NC(=O)C(Cc1c[nH]c2ccccc12)NC(=O)OC(C)(C)C (centres undefined) (Boc-WWWWWWW-OMe; configuration not given here) | 37.4 µM (inactive) | 33.3 µM (inactive) | > 100 µM (inactive) | 35.6 µM (inactive) | > 100 µM (inactive) | 67.5 µM (inactive) | 40.9 µM (inactive) | > 100 µM (inactive) | 51.5 µM (inactive) | > 100 µM (inactive) | 48 µM (inactive) | > 100 µM (inactive) | 17.3 µM (inactive) | > 100 µM (inactive) | > 100 µM (inactive) | 59.4 µM (inactive) | 62.2 µM (inactive) | – | – | – |
| C=C(Cl)CN1c2ccccc2C=Cc2ccccc21 | 10.1 µM (inactive) | 5.01 µM (inactive) | 14.7 µM (inactive) | – | 21.3 µM (inactive) | 16.3 µM (inactive) | 27.5 µM (inactive) | 16.6 µM (inactive) | 10.1 µM (inactive) | 16.9 µM (inactive) | – | 9.12 µM (inactive) | 24.7 µM (inactive) | 15.7 µM (inactive) | – | 15.2 µM (inactive) | 20.6 µM (inactive) | 34.7 µM (inactive) | 10.4 µM (inactive) | > 100 µM (inactive) |
| Cc1ccc(C(=O)c2[nH]c(NCc3ccccc3)c(C(=S)Nc3ccccc3)c2N)cc1 | 4.04 µM (inactive) | 4.35 µM (inactive) | 6.55 µM (inactive) | 3.64 µM (inactive) | 2.74 µM (inactive) | 5.75 µM (inactive) | 11.5 µM (inactive) | 15.5 µM (inactive) | 11.8 µM (inactive) | 10.3 µM (inactive) | – | 11.9 µM (inactive) | 4.85 µM (inactive) | 11.8 µM (inactive) | 2.38 µM (inactive) | 2.88 µM (inactive) | 14.5 µM (inactive) | 17 µM (inactive) | 5.06 µM (inactive) | 2.58 µM (inactive) |
| CC(=O)OC1COC(n2nc(N)nc2C)C(OC(C)=O)C1OC(C)=O (centres undefined) | > 100 µM (inactive) | > 100 µM (inactive) | > 100 µM (inactive) | > 100 µM (inactive) | > 100 µM (inactive) | > 100 µM (inactive) | > 100 µM (inactive) | > 100 µM (inactive) | > 100 µM (inactive) | > 100 µM (inactive) | – | > 100 µM (inactive) | > 100 µM (inactive) | > 100 µM (inactive) | > 100 µM (inactive) | > 100 µM (inactive) | > 100 µM (inactive) | > 100 µM (inactive) | > 100 µM (inactive) | > 100 µM (inactive) |
| O=C(O)Cc1nc[nH]c1C(=O)O | > 100 µM (inactive) | > 100 µM (inactive) | > 100 µM (inactive) | > 100 µM (inactive) | > 100 µM (inactive) | > 100 µM (inactive) | > 100 µM (inactive) | > 100 µM (inactive) | > 100 µM (inactive) | > 100 µM (inactive) | – | > 100 µM (inactive) | > 100 µM (inactive) | > 100 µM (inactive) | > 100 µM (inactive) | > 100 µM (inactive) | > 100 µM (inactive) | > 100 µM (inactive) | > 100 µM (inactive) | > 100 µM (inactive) |
| CN(C)C(=S)/N=c1\ssc(=S)n1Cc1ccco1 | 1.15 µM (inactive) | 1.53 µM (inactive) | 10.4 µM (inactive) | 8.07 µM (inactive) | 13.6 µM (inactive) | 3.44 µM (inactive) | 12 µM (inactive) | 2.56 µM (inactive) | 0.879 µM (active) | 0.571 µM (active) | 1.97 µM (inactive) | 0.509 µM (active) | 0.771 µM (active) | 1.15 µM (inactive) | 0.701 µM (active) | 0.49 µM (active) | 4.21 µM (inactive) | 1.38 µM (inactive) | 2.1 µM (inactive) | – |
| N#Cc1c(N2CCCC2)ncn(-c2ccccc2)c1=O | > 100 µM (inactive) | > 100 µM (inactive) | > 100 µM (inactive) | > 100 µM (inactive) | > 100 µM (inactive) | > 100 µM (inactive) | > 100 µM (inactive) | > 100 µM (inactive) | > 100 µM (inactive) | > 100 µM (inactive) | > 100 µM (inactive) | > 100 µM (inactive) | > 100 µM (inactive) | > 100 µM (inactive) | > 100 µM (inactive) | – | > 100 µM (inactive) | > 100 µM (inactive) | > 100 µM (inactive) | > 100 µM (inactive) |
